Structures are written as SMILES.

The results in this text go back to patent US20220009920A1 (GB005, Inc., priority 2020, published 2022).

Common to all, as to experiment: Large panel kinase profiling
Type in all cases: biochemical
What all share (details): 1 μM test article, 1 mM ATP

For experiment [1], the target named is T1, MAP3K5 (Homo sapiens, UniProt Q99683).
T1 construct: AssayQuant Technologies, Inc. (service provider)
T1 sequence (Q99683 1-1374): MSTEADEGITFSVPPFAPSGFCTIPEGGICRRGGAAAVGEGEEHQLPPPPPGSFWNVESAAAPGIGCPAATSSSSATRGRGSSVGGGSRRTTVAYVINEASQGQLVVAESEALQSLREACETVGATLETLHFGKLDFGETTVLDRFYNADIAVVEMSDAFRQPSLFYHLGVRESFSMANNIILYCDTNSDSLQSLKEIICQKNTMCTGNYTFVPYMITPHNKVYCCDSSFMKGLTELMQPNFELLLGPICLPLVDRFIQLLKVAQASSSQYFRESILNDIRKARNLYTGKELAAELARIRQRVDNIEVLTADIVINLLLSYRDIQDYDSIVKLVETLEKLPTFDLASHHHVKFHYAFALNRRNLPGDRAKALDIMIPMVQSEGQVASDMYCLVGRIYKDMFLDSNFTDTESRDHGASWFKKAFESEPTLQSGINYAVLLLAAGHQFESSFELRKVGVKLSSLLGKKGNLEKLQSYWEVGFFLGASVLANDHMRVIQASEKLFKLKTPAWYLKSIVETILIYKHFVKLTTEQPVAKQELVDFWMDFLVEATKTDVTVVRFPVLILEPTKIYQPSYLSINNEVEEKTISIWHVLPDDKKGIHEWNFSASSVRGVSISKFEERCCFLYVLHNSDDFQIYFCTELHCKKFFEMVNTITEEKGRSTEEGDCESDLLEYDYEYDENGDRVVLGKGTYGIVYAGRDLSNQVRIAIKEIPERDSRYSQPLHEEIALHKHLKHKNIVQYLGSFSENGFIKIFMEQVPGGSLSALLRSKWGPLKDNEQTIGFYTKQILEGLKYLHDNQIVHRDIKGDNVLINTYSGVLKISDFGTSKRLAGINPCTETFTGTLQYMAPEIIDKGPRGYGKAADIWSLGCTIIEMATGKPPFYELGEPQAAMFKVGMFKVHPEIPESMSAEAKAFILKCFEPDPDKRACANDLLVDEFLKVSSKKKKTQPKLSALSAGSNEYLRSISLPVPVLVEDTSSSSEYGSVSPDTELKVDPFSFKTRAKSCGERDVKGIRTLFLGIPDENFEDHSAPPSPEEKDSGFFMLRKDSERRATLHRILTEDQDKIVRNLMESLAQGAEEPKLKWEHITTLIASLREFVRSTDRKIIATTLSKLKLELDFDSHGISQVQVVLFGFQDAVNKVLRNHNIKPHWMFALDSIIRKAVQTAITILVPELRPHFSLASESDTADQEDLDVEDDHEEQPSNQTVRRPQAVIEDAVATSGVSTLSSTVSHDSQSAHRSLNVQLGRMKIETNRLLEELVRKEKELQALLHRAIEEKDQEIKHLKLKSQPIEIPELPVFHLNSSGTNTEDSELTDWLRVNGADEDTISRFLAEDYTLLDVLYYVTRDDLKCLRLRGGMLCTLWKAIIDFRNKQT
The method in brief: (§1)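 Steps: combine kinase, CSox-Sensor substrate, 1 mM ATP and 1 μM compound; seal and incubate at 30° C.; read top fluorescence kinetically each minute, Ex 360 nm/Em 485 nm.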

Experiment [2] has as its target T2, DYRK4 (Homo sapiens, UniProt Q9NR20).
T2 construct: AssayQuant Technologies, Inc. (service laboratory)
T2 sequence (Q9NR20 1-520): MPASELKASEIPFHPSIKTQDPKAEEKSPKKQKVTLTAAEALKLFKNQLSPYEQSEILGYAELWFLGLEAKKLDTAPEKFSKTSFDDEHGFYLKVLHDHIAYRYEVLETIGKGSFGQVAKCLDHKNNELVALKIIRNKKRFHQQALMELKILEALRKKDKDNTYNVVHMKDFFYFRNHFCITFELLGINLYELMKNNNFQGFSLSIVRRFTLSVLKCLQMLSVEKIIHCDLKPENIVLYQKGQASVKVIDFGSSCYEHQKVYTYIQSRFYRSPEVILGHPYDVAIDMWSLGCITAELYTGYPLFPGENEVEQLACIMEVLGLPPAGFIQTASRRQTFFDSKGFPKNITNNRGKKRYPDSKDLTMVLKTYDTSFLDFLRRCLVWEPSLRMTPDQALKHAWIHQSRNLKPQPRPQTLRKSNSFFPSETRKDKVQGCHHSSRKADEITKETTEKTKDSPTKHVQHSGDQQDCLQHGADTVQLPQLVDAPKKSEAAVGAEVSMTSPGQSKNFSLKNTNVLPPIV
The method in brief: as §1

Experiment [3] deals with T3, SYK (Homo sapiens, UniProt P43405).
T3 construct: AssayQuant Technologies, Inc. (contract assay)
The method in brief: as §1

In experiment [4] the target is T4, RPS6KA4/MSK2 (Homo sapiens, UniProt O75676).
T4 construct: AssayQuant Technologies, Inc. (contract assay)
T4 sequence (O75676 whole entry): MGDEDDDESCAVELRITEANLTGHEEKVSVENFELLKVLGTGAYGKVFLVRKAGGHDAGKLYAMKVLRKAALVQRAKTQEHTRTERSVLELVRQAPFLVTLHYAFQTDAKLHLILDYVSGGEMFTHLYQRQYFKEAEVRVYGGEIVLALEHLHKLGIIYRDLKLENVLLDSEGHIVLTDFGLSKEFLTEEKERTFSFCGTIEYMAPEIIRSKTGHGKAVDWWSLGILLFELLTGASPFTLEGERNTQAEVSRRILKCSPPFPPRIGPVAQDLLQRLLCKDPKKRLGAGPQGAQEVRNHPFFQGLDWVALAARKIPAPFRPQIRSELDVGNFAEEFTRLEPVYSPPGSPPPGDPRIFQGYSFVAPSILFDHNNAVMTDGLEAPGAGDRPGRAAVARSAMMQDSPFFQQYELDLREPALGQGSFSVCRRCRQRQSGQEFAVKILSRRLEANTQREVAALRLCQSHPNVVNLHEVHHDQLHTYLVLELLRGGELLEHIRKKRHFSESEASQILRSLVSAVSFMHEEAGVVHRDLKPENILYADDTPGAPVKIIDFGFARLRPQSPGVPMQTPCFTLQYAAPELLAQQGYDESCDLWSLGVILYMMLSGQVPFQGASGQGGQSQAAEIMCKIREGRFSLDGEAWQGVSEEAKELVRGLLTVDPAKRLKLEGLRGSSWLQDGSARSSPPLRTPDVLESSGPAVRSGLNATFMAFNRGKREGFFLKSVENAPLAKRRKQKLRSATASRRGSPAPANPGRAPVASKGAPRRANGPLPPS
The method in brief:
as §1

The target of experiment [5] is PRKCG/PKCG (Homo sapiens, UniProt P05129). Put shortly:
as §1

Experiment [6] has as its target PIM3 (Homo sapiens, UniProt Q86V86). The method in brief:
as §1

Experiment [7] concerns the target BMP2K/BIKE (Homo sapiens, UniProt Q9NSY1). Put shortly:
as §1

The target of experiment [8] is PKN1 (Homo sapiens, UniProt Q16512). Put shortly: as §1
PKN1, sequence (Q16512 whole entry, species assumed): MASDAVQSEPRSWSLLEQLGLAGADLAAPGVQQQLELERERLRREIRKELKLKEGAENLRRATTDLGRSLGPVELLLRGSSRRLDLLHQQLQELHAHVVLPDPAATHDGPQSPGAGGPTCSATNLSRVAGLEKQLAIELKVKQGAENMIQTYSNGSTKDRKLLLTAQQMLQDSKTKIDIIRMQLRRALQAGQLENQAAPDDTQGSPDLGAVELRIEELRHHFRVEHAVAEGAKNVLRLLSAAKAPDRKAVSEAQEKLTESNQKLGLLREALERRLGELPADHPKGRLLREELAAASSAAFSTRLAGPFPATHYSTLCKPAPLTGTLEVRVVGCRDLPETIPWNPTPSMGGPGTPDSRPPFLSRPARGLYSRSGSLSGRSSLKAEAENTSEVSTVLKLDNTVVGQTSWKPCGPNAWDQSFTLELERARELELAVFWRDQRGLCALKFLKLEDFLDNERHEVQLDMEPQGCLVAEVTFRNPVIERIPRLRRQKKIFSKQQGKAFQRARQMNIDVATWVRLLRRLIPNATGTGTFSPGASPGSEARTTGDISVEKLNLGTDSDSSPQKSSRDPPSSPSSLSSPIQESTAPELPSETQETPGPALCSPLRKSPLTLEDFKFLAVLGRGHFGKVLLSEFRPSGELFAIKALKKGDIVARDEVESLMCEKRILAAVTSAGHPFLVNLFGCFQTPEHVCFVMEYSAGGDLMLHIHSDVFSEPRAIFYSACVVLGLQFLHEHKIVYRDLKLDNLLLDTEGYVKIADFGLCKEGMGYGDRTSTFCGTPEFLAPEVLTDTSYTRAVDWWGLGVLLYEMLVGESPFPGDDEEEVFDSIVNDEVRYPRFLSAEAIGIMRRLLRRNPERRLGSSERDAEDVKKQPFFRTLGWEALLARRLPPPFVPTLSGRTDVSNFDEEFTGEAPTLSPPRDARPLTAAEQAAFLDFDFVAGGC
The target in experiment [9] is BUB1 (Homo sapiens, UniProt O43683). The method in brief:
as §1

BUB1, sequence (O43683 whole entry): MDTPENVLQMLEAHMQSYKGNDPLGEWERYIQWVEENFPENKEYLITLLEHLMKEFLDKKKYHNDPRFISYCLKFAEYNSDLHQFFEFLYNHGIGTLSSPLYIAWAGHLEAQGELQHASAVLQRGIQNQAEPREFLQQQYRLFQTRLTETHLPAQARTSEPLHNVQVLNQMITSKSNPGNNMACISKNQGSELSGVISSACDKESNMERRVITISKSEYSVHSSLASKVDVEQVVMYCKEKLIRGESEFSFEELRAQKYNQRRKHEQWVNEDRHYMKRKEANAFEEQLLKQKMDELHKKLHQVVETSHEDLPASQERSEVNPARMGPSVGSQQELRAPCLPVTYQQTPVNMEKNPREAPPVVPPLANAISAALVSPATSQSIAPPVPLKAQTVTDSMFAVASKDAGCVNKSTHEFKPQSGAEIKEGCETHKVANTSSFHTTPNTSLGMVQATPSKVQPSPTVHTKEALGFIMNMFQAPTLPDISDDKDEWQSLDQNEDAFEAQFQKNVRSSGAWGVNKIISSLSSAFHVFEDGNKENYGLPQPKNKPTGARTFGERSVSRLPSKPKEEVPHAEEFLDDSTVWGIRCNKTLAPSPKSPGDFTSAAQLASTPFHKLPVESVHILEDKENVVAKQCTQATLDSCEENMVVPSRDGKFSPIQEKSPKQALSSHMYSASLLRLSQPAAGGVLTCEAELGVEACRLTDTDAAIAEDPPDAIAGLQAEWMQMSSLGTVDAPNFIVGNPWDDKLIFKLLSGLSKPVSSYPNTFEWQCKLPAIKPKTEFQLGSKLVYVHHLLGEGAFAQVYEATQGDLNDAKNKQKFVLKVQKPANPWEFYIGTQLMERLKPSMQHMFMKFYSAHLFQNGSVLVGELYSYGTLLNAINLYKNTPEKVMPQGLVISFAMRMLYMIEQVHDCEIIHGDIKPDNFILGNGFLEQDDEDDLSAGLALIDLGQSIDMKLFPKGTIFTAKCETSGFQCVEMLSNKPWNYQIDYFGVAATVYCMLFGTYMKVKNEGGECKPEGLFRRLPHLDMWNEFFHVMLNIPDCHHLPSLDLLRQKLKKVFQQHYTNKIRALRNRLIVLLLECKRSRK
BMP2K/BIKE, sequence (Q9NSY1 whole entry): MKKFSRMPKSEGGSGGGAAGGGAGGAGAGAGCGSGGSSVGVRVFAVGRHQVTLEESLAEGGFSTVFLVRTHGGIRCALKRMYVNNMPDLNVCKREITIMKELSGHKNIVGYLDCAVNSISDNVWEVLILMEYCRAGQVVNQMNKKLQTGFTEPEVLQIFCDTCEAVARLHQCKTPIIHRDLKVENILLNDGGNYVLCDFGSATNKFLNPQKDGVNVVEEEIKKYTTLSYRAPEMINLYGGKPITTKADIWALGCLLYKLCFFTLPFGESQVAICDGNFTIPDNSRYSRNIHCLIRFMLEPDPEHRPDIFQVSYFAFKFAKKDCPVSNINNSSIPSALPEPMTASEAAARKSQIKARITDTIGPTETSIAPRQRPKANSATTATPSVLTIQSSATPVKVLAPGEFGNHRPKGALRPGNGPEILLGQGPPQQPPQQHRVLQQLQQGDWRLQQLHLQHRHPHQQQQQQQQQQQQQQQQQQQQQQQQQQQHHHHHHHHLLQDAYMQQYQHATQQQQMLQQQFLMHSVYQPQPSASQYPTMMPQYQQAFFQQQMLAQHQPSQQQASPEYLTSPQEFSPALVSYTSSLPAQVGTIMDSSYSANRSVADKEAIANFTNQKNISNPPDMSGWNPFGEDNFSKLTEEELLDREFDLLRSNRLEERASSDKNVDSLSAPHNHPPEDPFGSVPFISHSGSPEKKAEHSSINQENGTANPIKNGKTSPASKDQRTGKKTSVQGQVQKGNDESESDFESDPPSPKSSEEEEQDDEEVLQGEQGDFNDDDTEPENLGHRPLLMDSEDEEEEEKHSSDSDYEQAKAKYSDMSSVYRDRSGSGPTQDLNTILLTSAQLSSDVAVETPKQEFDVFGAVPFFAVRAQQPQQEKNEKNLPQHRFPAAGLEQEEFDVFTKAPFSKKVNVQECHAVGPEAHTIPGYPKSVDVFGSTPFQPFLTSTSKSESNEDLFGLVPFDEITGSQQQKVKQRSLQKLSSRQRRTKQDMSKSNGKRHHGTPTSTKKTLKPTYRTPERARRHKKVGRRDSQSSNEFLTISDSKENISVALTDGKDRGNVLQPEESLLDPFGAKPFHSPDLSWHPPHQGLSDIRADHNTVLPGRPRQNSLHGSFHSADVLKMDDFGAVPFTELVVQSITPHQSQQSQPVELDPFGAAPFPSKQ

A word on the inhibition: it is the relative decrease from the control value, in per cent. Consider `C=CC(=O)N1CCC[C@@H](c2c(F)cc(C(N)=O)c3[nH]c4c(c23)CCC4)C1` [Compound 10-2, (S)-8-(1-acryloylpiperidin-3-yl)-7-fluoro-1,2,3,4-tetrahydrocyclo-penta[b]indole-5-carboxamide], for which the inhibition at 1 µM in experiment [1] was 16.7%; in [2], -6.6%; in experiment [3], -14.1%; in experiment [4], -21.2%; in experiment [5] it was 1.3%; in experiment [6], -16.8%. Further, the values for the inhibition at 1 µM in [7], in experiment [8] and in experiment [9] were -6.6%, 12% and -2.3%, respectively.
Regarding `C=CC(=O)N1CCCC(c2c(F)cc(C(N)=O)c3[nH]c4c(c23)CCCCC4)C1` (single isomer, unassigned) [Compound 5-6], the inhibition at 1 µM in [1] was -10.4%; in experiment [2] it was 23.2%; in experiment [3], 2.8%; in [4], -6.1%; in experiment [5] it was -7.3%; in experiment [6], -14.1%. Moreover, the values for the inhibition at 1 µM in [7], in experiment [8] and in experiment [9] were -18.6%, 5.2% and 8.2%, respectively.
Regarding `C=CC(=O)N1CCC[C@@H](c2c(F)cc(C(N)=O)c3[nH]c4c(c23)CC2(CC4)CC2)C1` [Compound 6-2, (S)-5-(1-acryloylpiperidin-3-yl)-6-fluoro-1,2,4,9-tetrahydrospiro[carbazole-3,1′-cyclopropane]-8-carboxamide], the inhibition at 1 µM was 20% in experiment [1]; 15.4% in experiment [2]; -5.3% in experiment [3]; -23.2% in experiment [4]; 8.6% in [5]; -56.4% in [6]. The inhibition at 1 µM in experiment [7] was -12.3%; in experiment [8], -10.2%; in experiment [9] it was -11.5%.
